Test results published in patent US12458634B2, “Stabilized liquid formations containing picosulfate” (Ferring B.V., priority 2016, dated 2025).

Assay: Chemical stability of sodium picosulfate liquid formulations on storage (UPLC/HPLC assay of sodium picosulfate and degradation products)
Settings: for Effect of the anti-oxidant on rate of formation of Picosulfate Benzyl Alcohol: formulations containing sodium picosulfate, magnesium citrate and malic acid; for Effect of the anti-oxidant on initial rate of formation of Picosulfate Benzyl Alcohol, Compound RRT 1.35 and Compound RRT 1.94: formulations containing sodium carboxymethylcellulose and malic acid (Table 14)
[1] = water-insoluble antioxidants (Table 21)
[2] = water-soluble antioxidants (Table 17)

Compound | Effect of the anti-oxidant on rate of formation of Picosulfate Benzyl Alcohol [1] | Effect of the anti-oxidant on rate of formation of Picosulfate Benzyl Alcohol [2] | Effect of the anti-oxidant on initial rate of formation of Picosulfate Benzyl Alcohol, Compound RRT 1.35 and Compound RRT 1.94
COc1ccc(O)c(C(C)(C)C)c1 [BHA, butylated hydroxyanisole] | effective to reduce the rate of formation | – | –
Cc1cc(C(C)(C)C)c(O)c(C(C)(C)C)c1 [BHT, butylated hydroxytoluene] | effective to reduce the rate of formation | – | –
N[C@@H](Cc1c[nH]cn1)C(=O)O [histidine] | – | effective to reduce the rate of formation | –
O=S([O-])S(=O)(=O)[O-].[K+].[K+] [potassium metabisulfite] | – | – | effective to reduce the initial rate of formation
CCCOC(=O)c1cc(O)c(O)c(O)c1 [propyl gallate] | effective to reduce the rate of formation | – | –
O=S([O-])S(=O)(=O)[O-].[Na+].[Na+] [sodium metabisulfite] | – | effective to reduce the rate of formation | effective to reduce the initial rate of formation
Cc1c(C)c2c(c(C)c1O)CC[C@@](C)(CCC[C@H](C)CCC[C@H](C)CCCC(C)C)O2 [α-tocopherol] | effective to reduce the rate of formation | – | –
